Measured values taken from article PMC8861568, “Identification of (Z)-2-benzylidene-dihydroimidazothiazolone derivatives as tyrosinase inhibitors: Anti-melanogenic effects and in silico studies” (Computational and Structural Biotechnology Journal, 2022).

What was measured:
[1] = system: mushroom tyrosinase (mTYR); assay: Mushroom tyrosinase inhibition assay; assay type: biochemical, Agaricus bisporus; conditions: for IC50: mushroom tyrosinase, L-tyrosine substrate
Description: The tyrosinase inhibitory activity assays on the synthesized DHIT derivatives 1a – 1 k was performed using mushroom tyrosinase (mTYR), as previously described with minor modification. […] The optical densities of dopachrome produced during incubation were measured using a microplate reader (VersaMax™, Molecular Devices, Sunnyvale, CA, USA) at 492 nm. […] All experiments were conducted in triplicate. To calculate the tyrosinase inhibitory activities, the following formula was used: % inhibition = [(1− (A/B)) × 100], where A is test sample optical density and B is the optical density of the non-treated control.
IC50 values were calculated by plotting linear regression curves of percentage inhibitions versus derivative concentrations. The negative control was obtained by adding dimethyl sulfoxide (DMSO) instead of a DHIT derivative.

[2] = system: B16F10 cells; assay: Intracellular melanin content in B16F10 cells; assay type: cell-based, murine; conditions: 48 h; for intracellular melanin production compared with kojic acid: α-MSH + IBMX; for intracellular melanin production: 5, 10, 20 μM, α-MSH 1 μM + IBMX 200 μM
Description: To determine whether the inhibitory effects of compounds 1b and 1f on cellular TYR influence melanogenesis, cellular melanin production was measured. As was performed in TYR inhibition experiments, B16F10 cells co-stimulated with α -MSH and IBMX were used to compare the inhibitory effects of 1b and 1f on melanogenesis. Kojic acid was used as the positive control. […] Intracellular melanin contents were determined by measuring optical densities at 405 nm.
(§1) The inhibitory effects of compounds 1b and 1f on intracellular melanin contents were investigated as previously described. B16F10 cells were seeded at a density of 1 × 10^5 cells/well in 6-well plates and incubated in a humidified 5% CO2 atmosphere for 24 h at 37 °C. […] For extracellular melanin contents, the optical density of the cell culture media was directly measured at 405 nm. On the other hand, for intracellular melanin contents, the following procedure was performed. Briefly, after washing twice with PBS, adherent cells were detached by incubation in Trypsin/EDTA for 1 min. Pellets were dissolved in 100 μL of 1 N NaOH and then incubated for 1 h at 60 °C to dissolve the melanin. Intracellular melanin was quantified by measuring optical densities at 405 nm using a microplate reader (VersaMax^TM, Molecular Devices, Sunnyvale, CA, USA). Results were normalized versus cell pellet total protein using BCA protein assay reagent using BSA as the standard (Thermo Scientific, Rockford, IL, USA). The intracellular melanin contents were calculated using the following equation: (ΔODsample/ΔODcontrol) × 100%; where ΔODsample = the optical density of the test compound, and ΔODcontrol = the optical density of control. Experiments were performed in triplicate.

[3] = system: B16F10 cells; assay: Extracellular melanin (melanin level in medium) of B16F10 cells; assay type: cell-based, murine; conditions: 48 h; for melanin levels in media compared with kojic acid: α-MSH + IBMX; for melanin levels in media: 5, 10, 20 μM, α-MSH 1 μM + IBMX 200 μM
Description: To determine whether melanin levels in cell culture media were influenced by compounds 1b or 1f, melanin contents in B16F10 cell culture media after treatments with derivatives at different concentrations in the presence of α -MSH and IBMX for 48 h were analyzed by measuring optical densities at 405 nm using a microplate reader.
as §1

Row | Structure (SMILES) | mushroom tyrosinase inhibition compared with kojic acid [1] | IC50 [1] [µM] | fold more potent tyrosinase inhibition than MHY773 ([1]; ratio of IC50 values) [fold] | intracellular melanin production compared with kojic acid ([2]; 1b at 5 μM) | intracellular melanin production [2] | melanin levels in media compared with kojic acid ([3]; 1b at 5 μM) | melanin levels in media [3] | fold stronger tyrosinase inhibitor than kojic acid ([1]; ratio of IC50 values) [fold] | intracellular melanin production compared with kojic acid ([2]; 1f at 20 μM, kojic acid 20 μM) | melanin levels in media compared with kojic acid ([3]; 1f at 20 μM)
1 | O=c1/c(=C/c2ccc(O)cc2O)sc2n1CCN=2 [Compound 1b, (Z)-2-(2,4-Dihydroxybenzylidene)-5,6-dihydroimidazo[2,1-b]thiazol-3(2H)-one] | inhibited mTYR more than kojic acid | 0.88 ± 0.91 | ~3.3 | by the same extent as kojic acid at 20 μM | significantly and concentration-dependently suppressed this increase | suppressed these increases more than kojic acid at 20 μM | significantly and concentration-dependently suppressed these increases |  |  | 
2 | COc1ccc(/C=c2\sc3n(c2=O)CCN=3)cc1O [Compound 1f, (Z)-2-(3-Hydroxy-4-methoxybenzylidene)-5,6-dihydroimidazo[2,1-b]thiazol-3(2H)-one] | inhibited mTYR more than kojic acid | 17.1 ± 1.01 |  |  | significantly and concentration-dependently suppressed this increase |  | significantly and concentration-dependently suppressed these increases | 4.9 | stronger inhibitory effect on melanogenesis than kojic acid | suppressed these increases more than kojic acid at 20 μM
